Data as given in article PMC9598282 (Antibiotics, 2022).
Like-named read-outs stand apart in the source and are kept apart here.

How the values were obtained:
[1] = tested on: E. coli 107115; assay: microbe, parasite or virus in culture; type: cell-based, Escherichia coli; conditions: one value per checkerboard plate
Experimental: (§1) The adjuvant properties of the guanidinylated polymyxins were evaluated using the checkerboard assay as previously described. The bacterial solution was prepared as described in the antimicrobial susceptibility assay. The antibiotic of interest and the adjuvant were serially diluted two-fold along the x- and y-axis on a 96-well plate, respectively, resulting in varying concentrations of both agents in each well. Equal volumes of bacterial solution were added to the designated wells. The well consisting of bacterial solution served as the positive control, while the wells containing only media served as the negative control. The plate was then incubated at 37 °C for 18 h. After incubation, an Emax Plus microplate reader (Molecular Devices, Union City, CA, USA) was used to measure the OD at a wavelength of 590 nm to confirm the turbidity. The fractional inhibitory concentration (FIC) index was then determined to establish the relationship between the antibiotic and adjuvant. The FIC index corresponds to the sum of the FICs of the antibiotic and adjuvant. The FIC of each agent is calculated by dividing its MIC when it is used in combination by its MIC when used alone. FIC indices ≤0.5, 0.5 < x ≤ 4 and >4 indicate synergy, additivity and antagonism, respectively.

[2] = tested on: E. coli 94474; assay: Checkerboard assay; type: cell-based, Escherichia coli; conditions: one value per checkerboard plate
Experimental: as §1

[3] = tested on: E. coli 94393; assay: Checkerboard assay; type: cell-based, Escherichia coli; conditions: one value per checkerboard plate
Experimental: as §1

[4] = tested on: K. pneumoniae 113254; assay: Checkerboard assay; type: cell-based, Klebsiella pneumoniae; conditions: one value per checkerboard plate
Experimental: as §1

[5] = tested on: K. pneumoniae 113250; assay: Checkerboard assay; type: cell-based, Klebsiella pneumoniae; conditions: one value per checkerboard plate
Experimental: as §1

[6] = tested on: E. cloacae 118564; assay: Checkerboard assay; type: cell-based, Enterobacter cloacae; conditions: Enterobacter cloacae, 118564; agent alone, one value per checkerboard plate
Experimental: as §1

[7] = tested on: E. coli ATCC 25922; assay: microbe, parasite or virus in culture; type: cell-based, Escherichia coli; set-up: key to FIC index antibiotic + GCol / FIC index antibiotic + GPMB: sum of FICs; ≤0.5 synergy, 0.5–4 additivity, >4 antagonism; conditions: for MIC: Escherichia coli, ATCC25922, 18 h, read-out: MIC alone
Experimental: as §1

[8] = tested on: A. baumannii 92247; assay: microbe, parasite or virus in culture; type: cell-based, Acinetobacter baumannii; conditions: one value per checkerboard plate
Experimental: as §1

[9] = tested on: A. baumannii 110193; assay: microbe, parasite or virus in culture; type: cell-based, Acinetobacter baumannii; conditions: one value per checkerboard plate
Experimental: as §1

[10] = tested on: A. baumannii ATCC 17978; assay: microbe, parasite or virus in culture; type: cell-based, Acinetobacter baumannii; conditions: for MIC: Acinetobacter baumannii, ATCC17978, 18 h, read-out: MIC alone
Experimental: as §1

[11] = tested on: A. baumannii AB027; assay: microbe, parasite or virus in culture; type: cell-based, Acinetobacter baumannii; conditions: one value per checkerboard plate
Experimental: as §1

[12] = tested on: E. cloacae 121187; assay: microbe, parasite or virus in culture; type: cell-based, Enterobacter cloacae; conditions: one value per checkerboard plate
Experimental: as §1

[13] = tested on: A. baumannii AB031; assay: Checkerboard assay; type: cell-based, Acinetobacter baumannii; conditions: one value per checkerboard plate
Experimental: as §1

[14] = tested on: P. aeruginosa P264-104354; assay: Checkerboard assay; type: cell-based, Pseudomonas aeruginosa; conditions: Pseudomonas aeruginosa, P264104354, agent alone, one value per checkerboard plate
Experimental: as §1

[15] = tested on: P. aeruginosa P259-96918; assay: Checkerboard assay; type: cell-based, Pseudomonas aeruginosa; conditions: Pseudomonas aeruginosa, P25996918; agent alone, one value per checkerboard plate
Experimental: as §1

[16] = tested on: P. aeruginosa P262-101856; assay: Checkerboard assay; type: cell-based, Pseudomonas aeruginosa; conditions: Pseudomonas aeruginosa, P262101856, agent alone, one value per checkerboard plate
Experimental: as §1

[17] = tested on: P. aeruginosa 101243; assay: Checkerboard assay; type: cell-based, Pseudomonas aeruginosa; conditions: one value per checkerboard plate
Experimental: as §1

[18] = tested on: P. aeruginosa PAO1; assay: microbe, parasite or virus in culture; type: cell-based, Pseudomonas aeruginosa; conditions: for MIC: Pseudomonas aeruginosa, PAO1, 18 h, read-out: MIC alone
Experimental: as §1

[19] = tested on: P. aeruginosa 114228; assay: microbe, parasite or virus in culture; type: cell-based, Pseudomonas aeruginosa; conditions: Pseudomonas aeruginosa, 114228, agent alone, one value per checkerboard plate
Experimental: as §1

[20] = tested on: P. aeruginosa PA 107092; assay: Time-kill assay; type: cell-based, Pseudomonas aeruginosa; conditions: ceftazidime 8 μg/mL + GCol 2 μM or avibactam 8 μM
Experimental: To study the time-dependent killing effects of the drug combinations, the time-kill kinetics were assessed. The time-kill assay was performed following the 8 μM (2 μg/mL) concentration of avibactam used in the checkerboard assay. […] This concentration also corresponds to the susceptibility breakpoint of both β-lactams.
For the preparation of the bacterial solution, an overnight grown culture was diluted in 0.85% saline solution and adjusted to 0.5 McFarland turbidity. […] The culture tubes were incubated at 37 °C, shaking at 250 rpm. At the appointed time intervals, a 100-μL aliquot was taken from each tube, serially diluted in phosphate-buffered saline (PBS) and plated on LB agar plates. The plates were incubated at 37 °C, and bacterial colonies were counted after 18 h. The bactericidal or bacteriostatic activity is determined based on the decrease in CFU over the time period. Bactericidal activity corresponds to ≥3 log10 reduction in CFU/mL, while bacteriostatic activity corresponds to <3 log10 reduction in CFU/mL.

[21] = agent alone, one value per checkerboard plate

CO[C@H]1/C=C/O[C@@]2(C)Oc3c(C)c(O)c4c(O)c(c(/C=N/N5CCN(C)CC5)c(O)c4c3C2=O)NC(=O)/C(C)=C\C=C\[C@H](C)[C@H](O)[C@@H](C)[C@@H](O)[C@@H](C)[C@H](OC(C)=O)[C@@H]1C [Rifampicin]
MIC ([1]; Escherichia coli, 107115, agent alone): 32 µg/mL
MIC alone ([1]; agent alone): 16 µg/mL
MIC ([2]; Escherichia coli, 94474, agent alone): 8 µg/mL
MIC alone ([2]; agent alone): 4 µg/mL
MIC ([3]; Escherichia coli, 94393, agent alone): 8 µg/mL
MIC alone ([3]; agent alone): 4 µg/mL
MIC ([4]; Klebsiella pneumoniae, 113254, agent alone): 8 µg/mL
MIC alone ([4]; agent alone): 16 µg/mL
MIC ([5]; Klebsiella pneumoniae, 113250, agent alone): 16 µg/mL
MIC alone ([5]; agent alone): 32 µg/mL
MIC [6]: 8 µg/mL
Absolute MIC of antibiotic at 2 μg/mL GCol [7]: 0.008 µg/mL
Absolute MIC of antibiotic at 2 μg/mL GPMB [7]: 0.008 µg/mL
FIC index antibiotic + GCol [7]: 0.023
FIC index antibiotic + GPMB [7]: 0.07
MIC [7, 21]: 2 µg/mL
Fold-potentiation of antibiotic ([7]; at 2 μg/mL GCol): 256
Fold-potentiation of antibiotic ([7]; at 2 μg/mL GPMB): 256
MIC ([8]; Acinetobacter baumannii, 92247, agent alone): 1 µg/mL
MIC alone ([8]; agent alone): 0.5 µg/mL
MIC ([9]; Acinetobacter baumannii, 110193, agent alone): 2 µg/mL
MIC alone ([9]; agent alone): 1 µg/mL
Absolute MIC of antibiotic at 2 μg/mL GCol [10]: 0.0625 µg/mL
Absolute MIC of antibiotic at 2 μg/mL GPMB [10]: 0.004 µg/mL
FIC index antibiotic + GPMB [10]: 0.066
MIC [10, 21]: 2 µg/mL
Fold-potentiation of antibiotic ([10]; at 2 μg/mL GCol): 32
Fold-potentiation of antibiotic ([10]; at 2 μg/mL GPMB): 512
MIC ([11]; Acinetobacter baumannii, AB027, agent alone): 2 µg/mL
MIC alone ([11]; agent alone): 1 µg/mL
MIC ([12]; Enterobacter cloacae, 121187, agent alone): 1 µg/mL
MIC alone ([12]; agent alone): 2 µg/mL
MIC ([13]; Acinetobacter baumannii, AB031, agent alone): 2 µg/mL
MIC alone ([13]; agent alone): 1 µg/mL
MIC [14]: 16 µg/mL
MIC [15]: 16 µg/mL
MIC [16]: 512 µg/mL
MIC ([17]; Pseudomonas aeruginosa, 101243, agent alone): 2 µg/mL
MIC alone ([17]; agent alone): 4 µg/mL
Absolute MIC of antibiotic at 4 μg/mL GCol [18]: 0.0625 µg/mL
Absolute MIC of antibiotic at 4 μg/mL GPMB [18]: 0.03125 µg/mL
MIC [18, 21]: 16 µg/mL
Fold-potentiation of antibiotic ([18]; at 4 μg/mL GCol): 256
Fold-potentiation of antibiotic ([18]; at 4 μg/mL GPMB): 512
MIC [19]: 16 µg/mL

CN[C@H](CC(C)C)C(=O)N[C@H]1C(=O)N[C@@H](CC(N)=O)C(=O)N[C@H]2C(=O)N[C@H]3C(=O)N[C@H](C(=O)N[C@H](C(=O)O)c4cc(O)cc(O)c4-c4cc3ccc4O)[C@H](O)c3ccc(c(Cl)c3)Oc3cc2cc(c3O[C@@H]2O[C@H](CO)[C@@H](O)[C@H](O)[C@H]2O[C@H]2C[C@](C)(N)[C@H](O)[C@H](C)O2)Oc2ccc(cc2Cl)[C@H]1O [Vancomycin]
Absolute MIC of antibiotic at 2 μg/mL GCol [7]: 16 µg/mL
Absolute MIC of antibiotic at 2 μg/mL GPMB [7]: 8 µg/mL
FIC index antibiotic + GCol [7]: 0.25
FIC index antibiotic + GPMB [7]: 0.313
MIC [7]: 128 µg/mL
Fold-potentiation of antibiotic ([7]; at 2 μg/mL GCol): 8
Fold-potentiation of antibiotic ([7]; at 2 μg/mL GPMB): 16
Absolute MIC of antibiotic at 2 μg/mL GCol [10]: 64 µg/mL
Absolute MIC of antibiotic at 2 μg/mL GPMB [10]: 16 µg/mL
FIC index antibiotic + GPMB [10]: 0.188
MIC [10]: 128 µg/mL
Fold-potentiation of antibiotic ([10]; at 2 μg/mL GCol): 2
Fold-potentiation of antibiotic ([10]; at 2 μg/mL GPMB): 8
Absolute MIC of antibiotic at 4 μg/mL GCol [18]: 8 µg/mL
Absolute MIC of antibiotic at 4 μg/mL GPMB [18]: 2 µg/mL
MIC [18]: 256 µg/mL
Fold-potentiation of antibiotic ([18]; at 4 μg/mL GCol): 32
Fold-potentiation of antibiotic ([18]; at 4 μg/mL GPMB): 128

NC(=O)[C@@H]1CC[C@@H]2CN1C(=O)N2OS(=O)(=O)O [avibactam]
time-kill effect of dual therapy with ceftazidime [20]: bacteriostatic effect
